Data on ten molecules can be found in patent US9481734B2, “Immunoglobulin cleavage fragments and disease indicators and compositions for detecting and binding such” (Janssen Biotech, Inc., priority 2007, dated 2016).

No end group written: not given here. *: point of attachment. Biotin = O=C1N[C@H]2[C@H](CS[C@H]2CCCCC(=O)*)N1

The test system of assay [1] is Fab fragment of the 2095-2 antibody. Particulars: Biacore, 25° C., 1:1 (Langmuir) model. The procedure:
The specificity of binding was further examined using a Fab fragment of the 2095-2 antibody using a surface plasmon resonance platform (Biacore). Briefly, the Fab was immobilized to a CM5 sensor chip in a Biacore 2000 at three different surface densities (8500, 1650, and 350 RU) using standard NHS/EDC coupling. The running buffer contained 10 mM HEPES pH 7.4, 150 mM NaCl, and 0.01% Tween-20. Data were collected at 25° C.
Three N-terminally biotinylated peptides were tested for binding of to the immobilized Fab: WT, representing the expected sequence of a peptide fragment from a human IgG1 cleavage site after cleavage by the Streptococcus pyogenes IdeS protease; E233A, representing a variant of having a single alanine substitution at the amino acid residue four positions upstream of the C-terminus; and L234A, a variant having a single alanine substitution at the amino acid residue three positions upstream from the C-terminus. The peptides were modified by substituting serine for cysteine to make them compatible with the coupling chemistry and preserve the monomeric structure.
Peptides Wild type and E233A were tested in a 3-fold dilution series using 588 nM and 2.9 uM as the highest concentration, respectively. Peptide L234A was tested at 14.7 uM as the highest concentration in a 2-fold dilution series. Each peptide concentration series was tested in triplicate over the three different density Fab surfaces. The association and dissociation were monitored for 1 minute. Surfaces were regenerated with a 12 second injection of 1/500 dilution of phosphoric acid.

The test system of a further assay is human IgG1. The assay is described as follows: Proteinase digestion of purified IgG1, Agilent biosizing. The class given is biochemical. Particulars: for disappearance of intact IgG (160,000 Da): Mab1, 1% w/w enzyme, 37° C. The procedure:
A purified monoclonal antibody comprising a human IgG heavy chain was contacted with the proteases described and sampling was conducted over various durations of contact. Fragmentation in the samples was evaluated using the Agilent microfluidics “lab-on-a-chip” technology for in vitro biosizing (Goetz H et al. Biochemical and Biophysical Methods 60; 281-293, 2004).
Proteinase digestions of purified IgGs were carried out at pH 7.5 in phosphate-buffered saline (PBS) or, for the metalloproteinases, in Tris-buffered saline buffer at 37° C. Calcium chloride was included in the metalloproteinase reactions at 1 mM for MMP-12 and 10 mM for MMP-3; otherwise no additives were used. Antibody concentrations were typically 1 or 2 mg/mL and reactions were initiated by addition of enzyme to a 1% (w/w) ratio to IgG. Aliquots (10-20 μL) were removed at indicated times and the reactions were stopped either by adjustment to 20 mM EDTA (metalloproteinase incubations) or to 1 mM iodoacetamide (cysteine proteinases) or by rapid freezing.
The major proteolytic cleavage positions in the IgG1 hinge were identified for enzyme-generated fragments by N-terminal sequencing of the purified Fc fragment (MMP-3 and MMP-12) and/or high resolution mass spectrometric analyses of the purified Fab (neutrophil elastase, plasmin) and F(ab′)2 (cathepsin G, glutamyl endopeptidase and IdeS) fragments. Fragmentation was evaluated using the Agilent microfluidics “lab-on-a-chip” technology.

Assay [2] concerns platelet surface IIb/III3 receptors. The assay is described as follows: Platelet aggregation assay. It is filed as cell-based. Particulars: 5 μM adenosine diphosphate (ADP), compared with intact c7E3 IgG. The procedure: c7E3 inhibits platelet aggregation by binding to platelet surface IIb/III3 receptors—thereby blocking the ability of fibrinogen to bind to the receptors on activated platelets and to clump them together. The respective inhibitory profiles of intact and single-cleaved c7E3 IgG were tested in a platelet aggregation assay. Platelet aggregation is measured as an increase of light transmission through a platelet suspension after activation with a physiological agonist. The inhibition is compared to control aggregation to 5 μM adenosine diphosphate (ADP). The percent inhibition was calculated as: control aggregation−test aggregation×100%, divided by control aggregation.

Assay [3] has as its system platelets. The assay is described as follows: Restoration of function study in dogs, platelet counts. The class given is in vivo. Particulars: c7E3 variants 0.05 mg/kg, mAb 2095-2 0.5 mg/kg after 10 min delay, groups of 3 animals. As for the experimental part:
To be consistent with the prior experiments, the variants of c7E3 were all administered at the 0.05 mg/kg dose. The unique aspect of the experiment (groups 6 and 7) involves the infusion of the first targeting mAb followed by the cleavage site specific mAb after a 10 minute delay. The cleavage site specific IdeS cleavage site mAb, 2095-2, was administered at 0.5 mg/kg; 10-fold higher than the dose used for all of the c7E3 variants. The higher dose was chosen in order to maximize the complexation of cleavage site specific mAb with platelet-bound c7E3 variants. All mAbs were delivered by slow infusion over a 20 minute period. Platelet counts were monitored over a 96-hour period. The platelet counts were normalized to the pre-dose count within each animal for clarity of presentation and to minimize the normal variability in numerical platelet counts in these small 3-animal groups.

The next assay has as its system S. aureus (ATCC 29213). The assay is described as follows: Wiffle ball (tissue cage) S. aureus infection model in rabbits. The class given is in vivo. Particulars: day 2 after inoculation with 6.2 log 10 CFUs, immunized rabbits. From the text:
In order to test the capacity of cleavage site specific antibodies to rescue cleaved IgGs in vivo, a model for bacterial infection employing a “tissue cage” (Fernandez J A, et. al. (1997) Antimicrob. Agents Chemother. 43(3):667-671) was adopted. In this system, a wiffle ball is surgically implanted subcutaneously in the dorsal cervical area. The model allows the infectious agents to be localized within an easily accessible fluid compartment, a tissue pouch, and has been used to assess the efficacy of antibiotics against bacteria.
In the final phase of the study, the immunized and non-immunized rabbits were inoculated with 6.2 log 10 colony forming units (CFUs) of S. aureus (ATCC 29213) directly into the wiffle-ball compartments.
The bacterial counts and test subject viability were monitored over the course of two weeks for bacterial counts and survival. The data shown in FIG. 13 indicate that during the first week of the study, the average bacterial counts for control animals were several logs higher than cleavage site specific vaccinated animals. For example, on day 2 the control had 7.2 log10 CFU/ml wiffle ball fluid while the immunized group had 5.2 log10 CFU/ml wiffle ball fluid.

Assay [4] relates to platelets. The assay is described as follows: Test infusions of c7E3 IgG in dogs, platelet depletion. The class given is in vivo. Particulars: 0.05 mg/kg dose, calculated. An excerpt: First, the c7E3 antibody antigen binding and platelet depletion parameters were established in dogs.
For assay [5], the system named is platelets. The assay is described as follows: Platelet counts in dogs, intact versus single-cleaved c7E3 IgG. The class given is in vivo. Particulars: 0.05 mg/kg. The procedure: c7E3 IgG and c7E3 IgG single-cleaved by IdeS protease were also compared in vivo. Three groups of 5 animals received either saline control, intact c7E3 IgG (0.05 mg/kg) or c7E3 single-cleaved IgG (0.05 mg/kg). Platelet counts were monitored at baseline and at 2, 24, 48, 72 and 96 hours post-administration. Limiting the study to 5 days minimized the likelihood of anti-c7E3 immune responses that might confound the interpretation of the results. The results are presented in FIG. 3 as the mean platelet count±SD for each animal group at each time point. The extent of the error bars connotes the normal variability of platelet counts in different animals (for example, the predose counts for the 5 animals in the single-cleaved IgG treatment group were 175,000, 355,000, 305,000, 276,000 and 334,000 per μL, respectively).

Chain of human IgG1 (P01857 99-224 limits assumed): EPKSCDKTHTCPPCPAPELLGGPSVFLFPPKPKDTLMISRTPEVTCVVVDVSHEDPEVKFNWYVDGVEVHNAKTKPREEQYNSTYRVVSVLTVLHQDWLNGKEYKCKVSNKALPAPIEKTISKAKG

As for Biotin-TSPPSPAPELLG [Wt], in assay [1], the “ka(M-1s-1) × 10^−5” value is 5.22 ± 0.04 M-1s-1 × 10^−5 and the “kd” value was determined as 0.00443 ± 0.02 s⁻¹.
Take Tryptase: human serine endopeptidase: the “Major Product” value in the assay with human IgG1 (human IgG1, None denotes no detectable cleavage in 24 hours) is listed as “None”.
Turning to “Glutamyl endopeptidase I (Glu V8 protease): Staph. aureus serine endopeptidase”, the “disappearance of intact IgG (160,000 Da)” value with human IgG1 is “several hours”.
Same read-out and setting: the same measure for “Stromelysin (MMP-3): human metalloendopeptidase”: “several hours”.
Take “c7E3 sc IgG: c7E3 IgG single-cleaved by IdeS protease”: in assay [2], the “binding/inhibition of platelet aggregation after single lower hinge cleavage” value was “no loss of binding/inhibition”. The “effect on platelet numbers” value in the assay with platelets [3] was “without effect on platelet numbers”.
Turning to Biotin-TSPPSPAPEALG [L234A], in assay [1], the “ka(M-1s-1) × 10^−5” value is 1.24 ± 0.01 M-1s-1 × 10^−5 and the “kd” value was 1.03 ± 0.01 s⁻¹.
Turning to Biotin-TSPPSPAPALLG [E233A], in assay [1], the “ka(M-1s-1) × 10^−5” value is recorded as 7.29 ± 0.03 M-1s-1 × 10^−5 and the “kd” value is 0.1070 ± 0.04 s⁻¹.
Consider “C-T-S-P-P-S-P-S-P-A-P-E (CTSPPSPSPAPE; also: conjugated to KLH) [GluV8-cleavage site peptide analogue]”, for which the bacterial count in the assay on S. aureus (ATCC 29213) is given as 5.2 log10 CFU/ml wiffle ball fluid.

B1: c7E3 IgG: anti-platelet integrin (αIIbβIIIa) murine-human IgG1 chimeric antibody (antibody, chains of the INN, looked up, V domains shown)
VH: EVQLQQSGTVLARPGASVKMSCEASGYTFTNYWMHWVKQRPGQGLEWIGAIYPGNSDTSYIQKFKGKAKLTAVTSTTSVYMELSSLTNEDSAVYYCTLYDGYYVFAYWGQGTLVTVSA
VL: EIVLTQSPVTLSVTPGDSVSLSCRASRDISNNLHWFQQTSHESPRLLIKYASQSMSGIPSRFSGSGSGTDFTLSINSVETEDFGMYFCQQTNSWPYTFGGGTKLEIK
modifications: IgG1
notes: anti-platelet integrin (αIIbβIIIa) murine-human IgG1 chimeric antibody
Turning to B1, the αIIbβ3 receptor blockade result in the assay on platelets [4] was “about 5%”. The “nadir of platelet numbers” value in the assay on platelets [5] was found to be 24 h. The “recovery of platelet counts” value with platelets [5] (by 96 hours) is recorded as “approximately 50 % of the pre-dose level”. Also, in the assay on platelets [5] (groups of 5 animals, 96-hour monitoring), the “effect on platelet numbers” value is listed as “substantial decrease of platelet numbers”.

B2: c7E3 F(ab′)2: F(ab′)2 of c7E3 prepared using the bacterial enzyme IdeS (antibody, chains of the INN, looked up, V domains shown)
VH: B1 VH
VL: B1 VL
modifications: F(ab')2 IdeS-generated
notes: F(ab′)2 of c7E3 prepared using the bacterial enzyme IdeS
As to B2, the “effect on platelet numbers” value with platelets [3] is listed as “without effect on platelet numbers”.
